Data taken from patent US20230032934A1, “METHOD OF PRODUCING TUMOR-REACTIVE T CELL COMPOSITION USING MODULATORY AGENTS” (Myst Therapeutics, LLC, priority 2019, published 2023).
Entries after “also recorded” stand apart in the source; their conditions may differ. Where a SMILES comes first, the peptide text is derived from it. The star is where a group is joined. Cbz = O=C(OCc1ccccc1)*; CH2F = FC*

Assays:
[1] = system: expanded human T cells from three healthy donors; assay: Effect of T cell adjuvants on T cell viability (total viable CD3+ cell count, with and without OKT3); format: cell-based; settings: 10 μg/mL for antibodies, 25 μM for Z-VAD-FMK; 6 days; irrespective of activation status
Description: Cells were expanded from PBMC derived from Ficoll gradient separation from three healthy donor's apheresis material. […] Because the studies were carried out in healthy donors, stimulation of the T cells was carried out with anti-CD3 (OKT3) stimulation in order to mimic conditions present in the tumor microenvironment (TME).
Cells were next seeded into gas permeable 100M culture vessels and expanded for 7-14 days to achieve a large bank of T cells, and cryopreserved. […] Half of wells were additionally supplemented with 50 ng/mL OKT3, a human anti-CD3 monoclonal antibody. In total, 15 test adjuvant agents were tested for their impact on cell viability in the presence and absence of anti-CD3 activation (see Table E3). Cells were cultured for 6 days total, including a 50% medium exchange on culture day 3, and monitored for total viable CD3+ cell count.
Total viable CD3+ cell count for cells grown in the absence and presence of OKT3 stimulation are shown in FIGS. 27A-C and FIGS. 28A-C, respectively. The results shown are for the following concentrations of adjuvant: 10 μg/mL for tested antibodies (Tavolixizumab, Oxelumab, Ipilimumab, Tocilizumab, Urelumab, Pembrolizumab, Varlilumab, anti-GITR MK-1248, anto-human FasL); 25 μM for Z-VAD-FMK pan-caspase inhibitor; 250 nM for HSP inhibitor NVP-HSP990; and 1000 IU/mL for cytokine (IL-7, IL-15, IL-21, IL-23, IL-25, IL-27, or IL-35)).

[2] = system: PBMC from three healthy donors; assay: T cell expansion with FasL blockade or caspase inhibition, anti-CD3 (OKT3) stimulation; format: cell-based, human; settings: OKT3 activation; agent replenished at each media exchange (continuous); 2 μM Z-VAD-FMK or 500 ng/ml NOK-1
Description: Apoptotic inhibitors directed against Fas- and caspase-mediated pathways were assessed to determine effects on tumor reactive T cells during manufacturing. The studies were carried out in healthy donors, and thus, stimulation of the T cells were carried out with anti-CD3 (OKT3) or anti-CD3/anti-CD28 stimulation in order to mimic conditions present in the tumor microenvironment (TME). Constant activation signals present in the tumor microenvironment, as can be stimulated by anti-CD3 or anti-CD3/anti-CD28 activation can be detrimental to T cell growth. Cellular viability and projected cell numbers were used to compare the impact of modulation of apoptotic pathways in both a transient and a continuous activation assay, the latter of which more closely recapitulates the tumor microenvironment.
Cells were then seeded into a 24-well gas permeable cell culture plate at a density of 2.14×10^5 cells/mL (7.5×10^5 cells/cm^2). Cells were activated for 48 hours using 50 ng/ml OKT3, a human anti-CD3 monoclonal antibody, and were additionally treated with agents as described below. […]
Cultures were maintained for at least 13 days with a 50% media exchange every other day beginning on culture day 2. Cell counts and viability were monitored every other day. […]

[3] = system: PBMC from two healthy donors; assay: T cell expansion with FasL blockade or caspase inhibition, anti-CD3/anti-CD28 bead stimulation (transient or continuous activation); format: cell-based, human
Description: Cells were then seeded into a 24-well gas permeable cell culture plate at a density of 1.5×10^5 cells/mL (5.0×10^5 cells/cm^2).
Culture wells were assigned to one of two treatment groups, transient or continuous activation. For transient activation, anti-CD3/anti-CD28 paramagnetic beads (Dyanbeads™) were added to the culture media at a ratio of 1 bead per cell starting on culture day 0, and then were removed during media exchange on day 2. For continuous activation, anti-CD3/anti-CD28 paramagnetic beads (Dyanbeads™) were added to the culture media at a ratio of 1 bead per cell starting on culture day 0, and then added again on Day 4, and again on Day 6 at a ratio of 1 bead per cell. The anti-CD3/anti-CD28 paramagnetic beads were not removed on Day 2, 4 or 6.
For both the continuous and transient activation, culture wells were assigned to one of five treatment groups as described above for 10 conditions total per donor.
Cell counts and viability were monitored every other day. When cells reached 3×10^6 cells/ml, 1.5×10^6 cells were sub-cultured into a new well of a 24-well gas permeable culture plate with 7 mL final volume of medium and the culture continued as described above.

[4] = system: CRC tumor fragment or SCS cultures; assay: Caspase inhibition in tumor processing (tumor fragment and SCS cultures); format: cell-based, human; settings: 2 μM replenished at each media exchange
Description: Half of cultures contained media additionally supplemented with 2 μM of pan-caspase inhibitor Z-VAD-FMK which was replenished at each media exchange. Cultures were incubated at about 37° C. for a minimum of 18 days with a 50% medium exchange occurring every 2-3 days following culture day 5. Cell counts were performed on day 5 and at each medium exchange using the NC-200 Automated Cell Counter (ChemoMetec).

[5] = system: expanded human T cells from three healthy donors; assay: Cytokines, modulators and agonist antibodies with IL-2 on T cell number and naive/central memory phenotype; format: cell-based
Description: PBMC from three healthy donors were activated, expanded, and cryopreserved as described in Example 11. […] As previously described, stimulation of the healthy donor T cells prior to cryopreservation were carried out with anti-CD3 (OKT3) stimulation in order to mimic conditions present in the tumor microenvironment (TME).
Cells were next seeded into gas permeable 100M culture vessels and expanded for 7-14 days to achieve a large bank of T cells, and cryopreserved.
Cells were maintained in culture for 6 days, with a 50% medium exchange occurring at 3 days post culture initiation.
At the end of the culture period for all culture conditions, cells were assessed for cell count and sub-phenotypes of naïve and central memory T cells by flow cytometry by staining with CD45RA and CCR7 (naïve, CD45RA+ CCR7+; “central” memory, CD45RA− CCR7+).

[6] = system: cells processed from melanoma tumor fragments; assay: Anti-CD3 (OKT3) stimulation on expansion of melanoma tumor-derived cells; format: cell-based, human
Description: Cells processed from melanoma tumor fragments as described in Examples 1 and 2, were cultured in the presence or absence of 50 ng/mL OKT3, a human anti-CD3 monoclonal antibody. Cell cultures were carried out to between 14 and 31 days, such as between 14 and 21 days, in either a conventional 6-well plate or a gas permeable culture plate with RPMI or OpTmizer media. […] About 50% of cellular media was exchanged every other day beginning on the 5th day of culture as described previously. Cells were then counted using the NC-200 Automated Cell Counter (Chemometec).

[7] = system: T-cells from three healthy donors; assay: Activation markers on CD4+ and CD8+ T cells after OKT3 activation, flow cytometry; format: cell-based, human; settings: 50 ng/mL OKT3 vs no OKT3; 3-48 hours
Description: Specific markers of activation on the CD4+ and CD8+ cell populations were measured using flow cytometry over a time course of 3-48 hours. Specifically, the following markers were assessed: CD38 and CD39 (FIG. 12A and FIG. 13A), CD134 and CD137 (FIG. 12B and FIG. 13B), and CD69 and CD90 (FIG. 12C and FIG. 13C).

COC(=O)C[C@H](NC(=O)[C@H](C)NC(=O)[C@@H](NC(=O)OCc1ccccc1)C(C)C)C(=O)CF [Z-VAD-FMK, carbobenzoxy-valyl-alanyl-aspartyl-[O-methyl]-fluoromethylketone] (Cbz-Val-Ala-Asp(OMe)-CH2F)
viable cell counts versus DMSO treatment control [1]: consistently higher viable cell counts | cell growth (total cell number) [2]: greatest cell growth | total viable cell number and viability ([3]; agent continuous, listed as caspase inhibitor): outperformed the other conditions; also recorded: outperforming the transient condition | total viable cell number and viability ([3]; agent transient (day 0 only)): outperformed the other conditions | cell viability ([4]; SCS culture): similarly high | outgrowth of T cells ([4]; SCS culture): not observed | cell viability ([4]; tumor fragment-derived culture): also high | outgrowth of cells (fold expansion, total viable cells) ([4]; tumor fragment-derived culture): superior | percent of naïve and central memory T cells compared to IL-2 alone ([5]; 0.2 μg/mL-50 μg/mL, Day 6): no effect | CD3+ cells/mL on Day 6 compared to IL-2 alone ([5]; concentrations higher than 0.2 μg/mL): substantially increased

OKT3: a human anti-CD3 monoclonal antibody
total cell number and fold expansion ([6]; 50 ng/mL OKT3 vs no OKT3, with 300 or 6000 IU/mL IL-2, 14-31 days): did not substantially impact; also recorded: largely similar | fold expansion ([6]; Donor 6, presence or absence of anti-CD3 stimulation, all conditions): 2-4 fold | upregulation of activation markers CD38, CD39, CD134, CD137, CD69, CD90 on CD4+ T cells [7]: all assessed markers were upregulated to some extent | upregulation of activation markers CD38, CD39, CD134, CD137, CD69, CD90 on CD8+ T cells [7]: all assessed markers were upregulated to some extent
